Source: publication PMC11591356, “Immunomodulatory Effects of the Tobacco Defensin NaD1” (Antibiotics, 2024)
Where “and” joins values, the source holds several entries; their conditions need not be identical. Equal values may be shown once. Ends that are not written are not given here.

Tests used:
[1] = test system: human smooth muscles (CASMC); design: method as in PMID 28179997; settings: read-out: IC50, MTT cell viability assay; cited from earlier work
[2] = test system: immature monocyte-derived dendritic cells (moDC); test: Multiplex xMAP assessment of cytokine production by immature monocyte-derived dendritic cells; assay type: cell-based, human
Procedure: Immature monocyte-derived dendritic cells (moDC) were obtained from primary monocytes by a differentiation protocol involving a cytokine cocktail with IL-4 and GM-CSF [38]. For this, the monocytes were cultured in complete RPMI-1640 containing 10% HS, 1×AA solution, 500 U/mL rhIL-4 (Sci-Store, Moscow, Russia) and 800 U/mL rhGM-CSF (Sci-Store) for 3 days. Then, the cells were re-fed with the fresh medium with rhIL-4 and rhGM-CSF and cultured for 4 more days.
For the study of the immunomodulatory properties of NaD1, monocytes and immature dendritic cells (moDC) were seeded into the wells of a 24-well plate at densities of 4 × 10^5 and 1.3 × 10^5 cells per well, respectively, in complete RPMI-1640 with 10% HS and AA solution. Then, 24 h later, the culture medium was replaced by a fresh one either with 2 μM NaD1 for stimulation of the cells or without if for the control wells. The cultures were kept in a humidified CO2-intubator for 24 h and then the samples of the culture media were taken and frozen.
The absolute levels of 48 cytokines, chemokines and growth factors were determined at a protein level by multiplex xMAP technology (Luminex, Austin, TX, USA). For this, a MILLIPLEX Human Panel A kit (HCYTA-60K-PX48, Merck, Darmstadt, Germany) was used and the following 48 analytes were evaluated in two biological replications: sCD40L, EGF, CCL11/Eotaxin-1, FGF-basic/FGF-2, Flt-3 ligand, CX3CL1/Fractalkine, G-CSF, GM-CSF, GROα, IFNα2, IFN-γ, IL-1α, IL-1β, IL-1RA, IL-2, IL-3, IL-4, IL-5, IL-6, IL-7, CXCL8/IL-8, IL-9, IL-10, IL-12(p40), IL-12(p70), IL-13, IL-15, IL-17A/CTLA8, IL-17E/IL-25, IL-17F, IL-18, IL-22, IL-27, CXCL10/IP-10, CCL2/MCP-1, CCL7/MCP-3, M-CSF, CCL22/MDC, CXCL9/MIG, CCL3/MIP-1α, CCL4/MIP-1β, PDGF-AA, PDGF-AB/BB, CCL5/RANTES, TGF-α, TNF-α, TNF-β and VEGF-A. The fluorescent data were obtained on a MAGPIX system (Merck) operated with xPONENT 4.2 software (Merck). Final analysis was performed in MILLIPLEX Analyst v5.1 software (Merck).

[3] = test system: Caco-2 polarized monolayer; test: Caco-2 permeability assay, bidirectional transport; assay type: in vitro ADME, human; settings: Caco-2 polarized monolayer (21 days, TEER > 400 Ω cm^2), 5 µM FITC-labeled NaD1, HBSS transfer buffer pH 7.4, 90 min
Procedure: Caco-2 (ATCC HTB-37) cells were thawed and cultured in complete DMEM/F-12 culture medium (Corning), supplemented with 10% FBS in a humidified CO2-intubator. After the culture was subcultivated three times, the cells were seeded on cell inserts (PET, 0.4 μm, 0.6 cm^2 surface area, SPL Life Sciences, Pocheon-si, Republic of Korea) at a density of 2.5 × 10^5 cells/cm^2. Cells were grown for 21 days with re-feeding with the fresh medium every 2–3 days. To evaluate integrity of Caco-2 monolayer, a transepithelial electrical resistance (TEER) was measured by Millicell ERS-2 Voltohmmeter (Merck-Millipore, Burlington, MA, USA). Only inserts with TEER > 400 Ω cm^2 were used in the transport assay.
The permeability assay was conducted in transfer buffer (HBSS solution, containing 1 mM CaCl2, 1 mM MgCl2, 10 mM D(+)glucose, pH 7.4). […]
The apparent permeability coefficients (Papp) were calculated for each insert according to the following equation: Papp = dQ/dt × (1/(A × C0)), where dQ/dt is an amount of product present in the basolateral or apical chamber as a function of time (nM/s), A is an area of the insert (in cm^2) and C0 is an initial concentration of NaD1 in the apical or basolateral chamber (nM/mL). […]

Substance: NaD1: Recombinant tobacco floral defensin NaD1 (UNIPROT Q8GTM0), obtained by heterologous expression in E. coli; FITC-labeled in the permeability assay (RECKTESNTFPGICITKPPCRKACISEKFTDGHCSKILRRCLCTKPC; cysteine pairing not given here; also: FITC label; UniProt Q8GTM0 26-72, looked up)
- IC50 [1]: ~10 µM
- sCD40L absolute level ([2]; immature moDCs + 2 μM NaD1, 24 h, two biological replications, untreated control 116.89): 92.12 pg/mL
- IL-2 absolute level ([2]; moDCs + 2 μM NaD1, 24 h, control 0.51): <0.35↓ pg/ml
- IFNg absolute level ([2]; moDCs + 2 μM NaD1, 24 h, control 0.81): <0.61↓ pg/ml
- IL-18 absolute level ([2]; moDCs + 2 μM NaD1, 24 h, control 1.17): 0.78 pg/mL
- IL-10 absolute level ([2]; moDCs + 2 μM NaD1, 24 h, control 1.76): <1.29↓ pg/ml
- IL-6 absolute level ([2]; moDCs + 2 μM NaD1, 24 h, control 1.92): 0.85 pg/mL
- IL-9 absolute level ([2]; moDCs + 2 μM NaD1, 24 h, control 2.31): 0.83 pg/mL
- IP-10 absolute level ([2]; moDCs + 2 μM NaD1, 24 h, control 2.51): 2.51 pg/mL
- GM-CSF absolute level ([2]; moDCs + 2 μM NaD1, 24 h, control 3.8): 2.87 pg/mL
- IL-4 absolute level ([2]; moDCs + 2 μM NaD1, 24 h, control 4.21): 4.38 pg/mL
- GROa absolute level ([2]; moDCs + 2 μM NaD1, 24 h, control 5.3): 2.88 pg/mL
- EGF absolute level ([2]; moDCs + 2 μM NaD1, 24 h, control 5.38): 3.12 pg/mL
- TGF-a absolute level ([2]; moDCs + 2 μM NaD1, 24 h, control 6.04): 4.68 pg/mL
- IL-12 (p40) absolute level ([2]; moDCs + 2 μM NaD1, 24 h, control 6.14): <2.07↓ pg/ml
- G-CSF absolute level ([2]; moDCs + 2 μM NaD1, 24 h, control 6.59): 6.59 pg/mL
- IL-13 absolute level ([2]; moDCs + 2 μM NaD1, 24 h, control 10.99): <2.24↓ pg/ml
- IL-1b absolute level ([2]; moDCs + 2 μM NaD1, 24 h, control 12.11): 5.8 pg/mL
- IL-1a absolute level ([2]; moDCs + 2 μM NaD1, 24 h, control 12.13): 15.76 pg/mL
- IFNa2 absolute level ([2]; moDCs + 2 μM NaD1, 24 h, control 13.22): 7.1 pg/mL
- PDGF-AA absolute level ([2]; moDCs + 2 μM NaD1, 24 h, control 14.68): 12.15 pg/mL
- Fractalkine absolute level ([2]; moDCs + 2 μM NaD1, 24 h, control 26.94): 20.9 pg/mL
- TNFa absolute level ([2]; moDCs + 2 μM NaD1, 24 h, control 45.9): 30.64 pg/mL
- MCP-3 absolute level ([2]; moDCs + 2 μM NaD1, 24 h, control 62.22): 44.12 pg/mL
- MIP-1a absolute level ([2]; moDCs + 2 μM NaD1, 24 h, control 62.72): 35.36 pg/mL
- MIG absolute level ([2]; moDCs + 2 μM NaD1, 24 h, control 76.28): 16.72 pg/mL
- FGF-2 absolute level ([2]; moDCs + 2 μM NaD1, 24 h, control 78.9): 71.22 pg/mL
- IL-27 absolute level ([2]; moDCs + 2 μM NaD1, 24 h, control 80.06): 68.79 pg/mL
- M-GSF absolute level ([2]; moDCs + 2 μM NaD1, 24 h, control 101.68): 45.07 pg/mL
- IL-1RA absolute level ([2]; moDCs + 2 μM NaD1, 24 h, control 199.63): 133 pg/mL and 133.58 pg/mL
- MIP-1b absolute level ([2]; moDCs + 2 μM NaD1, 24 h, control 204.09): 120 pg/mL and 120.19 pg/mL
- MCP-1 absolute level ([2]; moDCs + 2 μM NaD1, 24 h, control 514.13): 288 pg/mL and 288.04 pg/mL
- MDC absolute level ([2]; moDCs + 2 μM NaD1, 24 h, control 1484): 1278 pg/mL
- IL-8 absolute level ([2]; moDCs + 2 μM NaD1, 24 h, control 1856): 1037 pg/mL
- IL-7 absolute level ([2]; moDCs + 2 μM NaD1, 24 h, control <0.32): <0.32↓ pg/ml
- IL-5 absolute level ([2]; moDCs + 2 μM NaD1, 24 h, control <0.33): <0.33↓ pg/ml
- FLT-3L absolute level ([2]; moDCs + 2 μM NaD1, 24 h, control <0.61): <0.61↓ pg/ml
- RANTES absolute level ([2]; moDCs + 2 μM NaD1, 24 h, control <0.73): <0.73↓ pg/ml
- IL-3 absolute level ([2]; moDCs + 2 μM NaD1, 24 h, control <0.77): <0.77↓ pg/ml
- TNFb absolute level ([2]; moDCs + 2 μM NaD1, 24 h, control <0.78): <0.78↓ pg/ml
- IL-17A absolute level ([2]; moDCs + 2 μM NaD1, 24 h, control <1.00): <1.00↓ pg/ml
- VEGFa absolute level ([2]; moDCs + 2 μM NaD1, 24 h, control <1.44): <1.44↓ pg/ml
- IL-12 (p70) absolute level ([2]; moDCs + 2 μM NaD1, 24 h, control <1.79): <1.79↓ pg/ml
- IL-15 absolute level ([2]; moDCs + 2 μM NaD1, 24 h, control <1.84): <1.84↓ pg/ml
- Eotaxin absolute level ([2]; moDCs + 2 μM NaD1, 24 h, control <3.80): <3.80↓ pg/ml
- PDGF-AB/BB absolute level ([2]; moDCs + 2 μM NaD1, 24 h, control <5.75): <5.75↓ pg/ml
- IL-22 absolute level ([2]; moDCs + 2 μM NaD1, 24 h, control <9.00): <9.00↓ pg/ml
- IL-17F absolute level ([2]; moDCs + 2 μM NaD1, 24 h, control <16.98): <16.98↓ pg/ml
- IL-17E/IL-25 absolute level ([2]; moDCs + 2 μM NaD1, 24 h, control <25.82): <25.82↓ pg/ml
- Apparent permeability coefficient Papp, A→B (absorptive) ([3]; apical to basolateral, mean of 6 independent inserts): 2.72 ×10⁻⁶ cm/s
- Apparent permeability coefficient Papp, B→A (secretory) ([3]; basolateral to apical, mean of 4 independent inserts): 2.22 ×10⁻⁶ cm/s
